# Test results from US8653263B2 (Janssen Pharmaceutica, priority 2009, dated 2014).
# Target: human orexin-2 receptor (Homo sapiens (Human), UniProt O43614)
# Assay: Human orexin 2 receptor radioligand binding ([3H]-EMPA competition)
# Conditions: HEK293 cells stably expressing human orexin-2 receptor; [3H]-EMPA 5 nM final; apparent Ki=IC50/(1+C/Kd), Kd=2 nM; read-out: OR 2 Ki
# human orexin-2 receptor, sequence (O43614 whole entry): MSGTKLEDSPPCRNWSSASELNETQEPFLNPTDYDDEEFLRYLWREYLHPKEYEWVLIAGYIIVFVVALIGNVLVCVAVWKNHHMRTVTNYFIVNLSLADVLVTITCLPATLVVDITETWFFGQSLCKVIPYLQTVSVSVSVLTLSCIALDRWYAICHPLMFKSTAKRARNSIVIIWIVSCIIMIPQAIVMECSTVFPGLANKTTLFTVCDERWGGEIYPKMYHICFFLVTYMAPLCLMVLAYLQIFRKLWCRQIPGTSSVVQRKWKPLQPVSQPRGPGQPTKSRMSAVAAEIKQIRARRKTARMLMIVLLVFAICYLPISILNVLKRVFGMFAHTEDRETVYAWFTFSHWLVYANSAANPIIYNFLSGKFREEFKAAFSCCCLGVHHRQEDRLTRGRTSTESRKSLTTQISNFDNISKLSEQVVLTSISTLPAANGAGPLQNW
row,SMILES,Ki
1,"Cc1cc(C)nc(N2CC3CN(C(=O)c4cccc(F)c4C)CC3C2)n1 (centres unmarked) [Example 220, 2-(4,6-Dimethylpyrimidin-2-yl)-5-[(3-fluoro-2-methylphenyl)carbonyl]octahydropyrrolo[3,4-c]pyrrole]",500 nM
2,"Cc1cc(C)nc(N2CC3CN(C(=O)c4cc(F)ccc4C(F)(F)F)CC3C2)n1 (centres unmarked) [Example 221, 2-(4,6-Dimethylpyrimidin-2-yl)-5-{[5-fluoro-2-(trifluoromethyl)phenyl]carbonyl}octahydropyrrolo[3,4-c]pyrrole]",2210 nM
3,"COc1cc(Cl)ccc1C(=O)N1CC2CN(c3nc(C)cc(C)n3)CC2C1 (centres unmarked) [Example 222, 2-[(4-Chloro-2-methoxyphenyl)carbonyl]-5-(4,6-dimethylpyrimidin-2-yl)octahydropyrrolo[3,4-c]pyrrole]",3620 nM
4,"Cc1cc(C)nc(N2CC3CN(C(=O)c4cc(Cl)ccc4C)CC3C2)n1 (centres unmarked) [Example 223, 2-[(5-Chloro-2-methylphenyl)carbonyl]-5-(4,6-dimethylpyrimidin-2-yl)octahydropyrrolo[3,4-c]pyrrole]",340 nM
5,"Cc1ccc(C)c(C(=O)N2CC3CN(c4nc(C)cc(C)n4)CC3C2)c1 (centres unmarked) [Example 224, 2-[(2,5-Dimethylphenyl)carbonyl]-5-(4,6-dimethylpyrimidin-2-yl)octahydropyrrolo[3,4-c]pyrrole]",635 nM
6,"Cc1cc(C)nc(N2CC3CN(C(=O)c4c(C)cccc4C)CC3C2)n1 (centres unmarked) [Example 225, 2-[(2,6-Dimethylphenyl)carbonyl]-5-(4,6-dimethylpyrimidin-2-yl)octahydropyrrolo[3,4-c]pyrrole]",423 nM
7,"Cc1cc(C)nc(N2CC3CN(C(=O)c4cc(F)ccc4C)CC3C2)n1 (centres unmarked) [Example 226, 2-(4,6-Dimethylpyrimidin-2-yl)-5-[(5-fluoro-2-methylphenyl)carbonyl]octahydropyrrolo[3,4-c]pyrrole]",836 nM
8,"Cc1ccc(C(=O)N2CC3CN(c4nc(C)cc(C)n4)CC3C2)c(C)c1 (centres unmarked) [Example 227, 2-[(2,4-Dimethylphenyl)carbonyl]-5-(4,6-dimethylpyrimidin-2-yl)octahydropyrrolo[3,4-c]pyrrole]",1470 nM
9,"CCOc1ccc(OCC)c(C(=O)N2CC3CN(c4nc(C)cc(C)n4)CC3C2)c1 (centres unmarked) [Example 228, 2-[(2,5-Diethoxyphenyl)carbonyl]-5-(4,6-dimethylpyrimidin-2-yl)octahydropyrrolo[3,4-c]pyrrole]",184 nM
10,"CCOc1cccc(OCC)c1C(=O)N1CC2CN(c3nc(C)cc(C)n3)CC2C1 (centres unmarked) [Example 229, 2-[(2,6-Diethoxyphenyl)carbonyl]-5-(4,6-dimethylpyrimidin-2-yl)octahydropyrrolo[3,4-c]pyrrole]",319 nM
11,"Cc1cc(C)nc(N2CC3CN(C(=O)c4c(C)cccc4Cl)CC3C2)n1 (centres unmarked) [Example 230, 2-[(2-Chloro-6-methylphenyl)carbonyl]-5-(4,6-dimethylpyrimidin-2-yl)octahydropyrrolo[3,4-c]pyrrole]",254 nM
12,"Cc1cc(C)nc(N2CC3CN(C(=O)c4ccc(F)cc4-c4ncccn4)CC3C2)n1 (centres unmarked) [Example 231, (5-(4,6-Dimethylpyrimidin-2-yl)hexahydropyrrolo[3,4-c]pyrrol-2(1H)-yl)(4-fluoro-2-(pyrimidin-2-yl)phenyl)methanone]",68 nM
13,"Cc1cc(C)nc(N2CC3CN(C(=O)c4cccc(F)c4I)CC3C2)n1 (centres unmarked) [Example 232, (5-(4,6-Dimethylpyrimidin-2-yl)hexahydropyrrolo[3,4-c]pyrrol-2(1H)-yl)(3-fluoro-2-iodophenyl)methanone]",52 nM
14,"Cc1cc(C)nc(N2CC3CN(C(=O)c4cccnc4C(F)(F)F)CC3C2)n1 (centres unmarked) [Example 233, 2-(4,6-Dimethylpyrimidin-2-yl)-5-{[2-(trifluoromethyl)pyridin-3-yl]carbonyl}octahydropyrrolo[3,4-c]pyrrole]",2100 nM
15,Cc1cc(C)nc(N2CC3CN(C(=O)c4cccnc4Br)CC3C2)n1 (centres unmarked) [Example 234],10000 nM
16,"Cc1cc(C)nc(N2CC3CN(C(=O)c4cccnc4-c4ncccn4)CC3C2)n1 (centres unmarked) [Example 235, (5-(4,6-Dimethylpyrimidin-2-yl)hexahydropyrrolo[3,4-c]pyrrol-2(1H)-yl)(2-(pyrimidin-2-yl)pyridin-3-yl)methanone]",560 nM
17,"Cc1cc(C)nc(N2CC3CN(C(=O)c4cccnc4-c4ccnn4C4CCCCO4)CC3C2)n1 (centres unmarked) [Example 236, (5-(4,6-Dimethylpyrimidin-2-yl)hexahydropyrrolo[3,4-c]pyrrol-2(1H)-yl)(2-(1-(tetrahydro-2H-pyran-2-yl)-1H-pyrazol-5-yl)pyridin-3-yl)methanone]",10000 nM
18,"Cc1cc(C)nc(N2CC3CN(C(=O)c4cccnc4-c4ccn[nH]4)CC3C2)n1 (centres unmarked) [Example 237, (2-(1H-Pyrazol-5-yl)pyridin-3-yl)(5-(4,6-dimethylpyrimidin-2-yl)hexahydropyrrolo[3,4-c]pyrrol-2(1H)-yl)methanone]",69 nM
19,"Cc1nc(N2CC3CN(C(=O)c4cccc(F)c4-c4ncccn4)CC3C2)nc(C)c1C (centres unmarked) [Example 239, (3-Fluoro-2-(pyrimidin-2-yl)phenyl)(5-(4,5,6-trimethylpyrimidin-2-yl)hexahydropyrrolo[3,4-c]pyrrol-2(1H)-yl)methanone]",7 nM
20,"Cc1nc(N2CC3CN(C(=O)c4cccc(F)c4-n4nccn4)CC3C2)nc(C)c1C (centres unmarked) [Example 240, (3-Fluoro-2-(2H-1,2,3-triazol-2-yl)phenyl)(5-(4,5,6-trimethylpyrimidin-2-yl)hexahydropyrrolo[3,4-c]pyrrol-2(1H)-yl)methanone]",7 nM
21,"COc1ccc(-n2nccn2)c(C(=O)N2CC3CN(c4nc(C)c(C)c(C)n4)CC3C2)c1 (centres unmarked) [Example 241, (5-Methoxy-2-(2H-1,2,3-triazol-2-yl)phenyl)(5-(4,5,6-trimethylpyrimidin-2-yl)hexahydropyrrolo[3,4-c]pyrrol-2(1H)-yl)methanone]",17 nM
22,"O=C(c1cccc(F)c1-n1nccn1)N1CC2CN(c3ncc4cc(F)ccc4n3)CC2C1 (centres unmarked) [Example 242, (3-Fluoro-2-(2H-1,2,3-triazol-2-yl)phenyl)(5-(6-fluoroquinazolin-2-yl)hexahydropyrrolo[3,4-c]pyrrol-2(1H)-yl)methanone]",39 nM
23,"O=C(c1cccc(F)c1-c1ncccn1)N1CC2CN(c3ncc4cc(F)ccc4n3)CC2C1 (centres unmarked) [Example 243, (3-Fluoro-2-(pyrimidin-2-yl)phenyl)(5-(6-fluoroquinazolin-2-yl)hexahydropyrrolo[3,4-c]pyrrol-2(1H)-yl)methanone]",16 nM
24,"COc1ccc(-n2nccn2)c(C(=O)N2CC3CN(c4cnc5cc(F)c(F)cc5n4)CC3C2)c1 (centres unmarked) [Example 245, (5-(6,7-Difluoroquinoxalin-2-yl)hexahydropyrrolo[3,4-c]pyrrol-2(1H)-yl)(5-methoxy-2-(2H-1,2,3-triazol-2-yl)phenyl)methanone]",58 nM
25,"O=C(c1c(F)cccc1-n1nccn1)N1CC2CN(c3cnc4cc(F)c(F)cc4n3)CC2C1 (centres unmarked) [Example 246, (5-(6,7-Difluoroquinoxalin-2-yl)hexahydropyrrolo[3,4-c]pyrrol-2(1H)-yl)(2-fluoro-6-(2H-1,2,3-triazol-2-yl)phenyl)methanone]",11 nM
26,"O=C(c1cccc(F)c1Br)N1CC2CN(c3ncc4cc(F)ccc4n3)CC2C1 (centres unmarked) [Example 247, (2-Bromo-3-fluorophenyl)(5-(6-fluoroquinazolin-2-yl)hexahydropyrrolo[3,4-c]pyrrol-2(1H)-yl)methanone]",650 nM
